Data on 2 molecules can be found in publication PMC8633983, “GTP binding to translation factor eIF2B stimulates its guanine nucleotide exchange activity” (iScience, 2021).

SMILES strings stand for the structures.

This assay has as its target T1, eIF2Bγ (in eIF2B complex) (Saccharomyces cerevisiae, UniProt P09032).
T1 construct: gene GCD1; purified eIF2B complex; with eIF2Bε (GCD6) and the other eIF2B subunits
Put plainly: competition filter binding against […]-GTP.

T1 sequence (P09032 whole entry): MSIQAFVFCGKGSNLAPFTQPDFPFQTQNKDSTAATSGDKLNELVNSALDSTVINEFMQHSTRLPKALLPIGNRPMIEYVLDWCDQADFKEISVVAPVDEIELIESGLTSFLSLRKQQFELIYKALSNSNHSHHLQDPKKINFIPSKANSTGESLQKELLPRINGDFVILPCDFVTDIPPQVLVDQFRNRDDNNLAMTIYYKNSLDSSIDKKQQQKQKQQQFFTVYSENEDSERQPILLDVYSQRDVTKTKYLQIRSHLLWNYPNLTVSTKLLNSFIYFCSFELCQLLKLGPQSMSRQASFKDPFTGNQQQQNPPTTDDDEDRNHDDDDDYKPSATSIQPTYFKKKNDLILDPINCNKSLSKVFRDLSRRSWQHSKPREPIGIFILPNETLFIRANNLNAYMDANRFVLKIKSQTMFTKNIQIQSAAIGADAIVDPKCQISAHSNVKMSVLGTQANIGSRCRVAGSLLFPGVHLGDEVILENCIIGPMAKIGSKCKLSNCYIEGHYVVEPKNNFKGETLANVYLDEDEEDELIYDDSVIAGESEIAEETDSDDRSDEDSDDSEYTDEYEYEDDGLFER
T1 sequence (P32501 whole entry partner): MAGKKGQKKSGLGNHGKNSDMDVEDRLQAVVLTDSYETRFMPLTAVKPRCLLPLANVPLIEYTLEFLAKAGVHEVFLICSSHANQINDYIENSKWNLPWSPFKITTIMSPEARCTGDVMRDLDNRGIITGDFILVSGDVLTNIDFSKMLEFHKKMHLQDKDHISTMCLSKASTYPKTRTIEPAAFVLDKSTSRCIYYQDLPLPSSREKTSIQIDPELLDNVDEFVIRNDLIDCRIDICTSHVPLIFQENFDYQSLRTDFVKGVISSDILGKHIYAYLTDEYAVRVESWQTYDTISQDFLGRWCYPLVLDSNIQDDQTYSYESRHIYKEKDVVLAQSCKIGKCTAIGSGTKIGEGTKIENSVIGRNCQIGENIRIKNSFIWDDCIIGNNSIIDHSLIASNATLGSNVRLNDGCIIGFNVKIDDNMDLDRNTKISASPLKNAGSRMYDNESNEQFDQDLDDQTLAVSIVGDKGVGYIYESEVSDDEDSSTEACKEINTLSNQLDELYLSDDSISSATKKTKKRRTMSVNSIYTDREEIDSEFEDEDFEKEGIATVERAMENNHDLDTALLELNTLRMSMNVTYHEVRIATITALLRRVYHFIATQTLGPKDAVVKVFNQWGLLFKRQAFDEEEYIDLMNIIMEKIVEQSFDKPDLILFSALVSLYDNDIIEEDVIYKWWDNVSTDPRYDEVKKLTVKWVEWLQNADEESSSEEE
T1 sequence (P14741 2-305 partner): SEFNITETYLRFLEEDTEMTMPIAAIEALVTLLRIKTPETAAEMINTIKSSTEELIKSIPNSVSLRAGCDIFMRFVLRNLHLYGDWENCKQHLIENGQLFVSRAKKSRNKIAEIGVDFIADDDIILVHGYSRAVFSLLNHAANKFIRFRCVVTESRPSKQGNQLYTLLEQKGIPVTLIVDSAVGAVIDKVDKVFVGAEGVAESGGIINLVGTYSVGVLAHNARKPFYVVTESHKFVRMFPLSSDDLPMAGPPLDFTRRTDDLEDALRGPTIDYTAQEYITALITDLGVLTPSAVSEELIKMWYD
T1 sequence (P32502 whole entry partner): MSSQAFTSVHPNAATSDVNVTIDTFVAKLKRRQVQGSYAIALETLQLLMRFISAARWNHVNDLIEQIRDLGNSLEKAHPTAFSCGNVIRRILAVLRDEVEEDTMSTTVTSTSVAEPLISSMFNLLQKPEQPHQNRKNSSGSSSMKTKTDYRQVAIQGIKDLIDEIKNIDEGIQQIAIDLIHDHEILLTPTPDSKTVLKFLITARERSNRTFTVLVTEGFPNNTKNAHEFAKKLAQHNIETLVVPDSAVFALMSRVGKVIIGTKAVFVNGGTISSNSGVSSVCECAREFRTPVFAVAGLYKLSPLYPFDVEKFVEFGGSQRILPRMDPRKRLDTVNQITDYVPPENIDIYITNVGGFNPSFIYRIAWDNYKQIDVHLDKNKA
T1 sequence (P12754 2-651 partner): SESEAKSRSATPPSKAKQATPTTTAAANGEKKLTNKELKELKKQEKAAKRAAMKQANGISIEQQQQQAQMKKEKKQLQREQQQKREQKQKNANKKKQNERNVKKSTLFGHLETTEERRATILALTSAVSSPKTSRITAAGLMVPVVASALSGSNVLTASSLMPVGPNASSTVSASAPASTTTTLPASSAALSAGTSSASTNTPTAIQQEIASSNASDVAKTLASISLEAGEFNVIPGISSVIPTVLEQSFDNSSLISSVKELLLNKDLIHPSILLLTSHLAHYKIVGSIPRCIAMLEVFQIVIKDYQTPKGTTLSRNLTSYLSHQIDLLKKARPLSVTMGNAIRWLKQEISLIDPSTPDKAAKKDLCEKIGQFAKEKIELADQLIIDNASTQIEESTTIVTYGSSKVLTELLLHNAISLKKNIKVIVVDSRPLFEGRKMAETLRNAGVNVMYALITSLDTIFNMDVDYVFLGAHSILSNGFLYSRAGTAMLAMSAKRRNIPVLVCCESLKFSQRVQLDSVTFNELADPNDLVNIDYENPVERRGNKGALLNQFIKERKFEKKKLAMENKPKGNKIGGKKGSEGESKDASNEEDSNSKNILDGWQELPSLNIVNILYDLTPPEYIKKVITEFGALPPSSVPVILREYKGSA

`Nc1ncnc2c1ncn2[C@@H]1O[C@H](COP(=O)(O)OP(=O)(O)OP(=O)(O)O)[C@@H](O)[C@H]1O` [ATP]: the “competition filter binding against 32P-GTP” value was “suggesting eIF2B can bind both ATP and GTP, but with a preference for GTP”.
The value for `Nc1nc2c(ncn2[C@@H]2O[C@H](COP(=O)(O)OP(=O)(O)O)[C@@H](O)[C@H]2O)c(=O)[nH]1` [GDP] was “GTP was a more effective competitor than ATP or GDP”.
